Data on eleven molecules can be found in patent US4584377A, “Novel Fredericamycin A derivatives” (SS Pharmaceutical Co., Ltd., priority 1983, dated 1986).

Data set [1] concerns Ehrlich carcinoma. Kind of data set: Antitumor effect, survival of tumor-inoculated mice. Particulars: intraperitoneally, once a day for 10 days. The data set is classed as in vivo, ICR mice.
Data set [2] in a line: physchem. The data set is classed as physicochemical. The note with it: 10 μg/ml in dimethylsulfoxide/physiological saline; for Percentage remainder: 0 hr.; for remaining at 3 h / remaining at 6 h / remaining at 24 h / remaining at 48 h / remaining at 72 h: read-out: Percentage remainder. Here is the method: The stability of some Fredericamycin A derivatives and Fredericamycin A in their aqueous solutions were tested in accordance with the following procedures.
The test compounds were individually dissolved in dimethylsulfoxide, followed by dilution of the resulting solutions with physiological saline to adjust the final concentrations of the test compounds and Fredericamycin to 10 μg/ml respectively. The thus-prepared test solutions were then subjected to high performance liquid chromatography after predetermined time intervals to measure the percentage remainders of the test compounds.

The subject of data set [3] is mouse leukemia P-388. Description: Antitumor effect, survival of tumor-inoculated mice. Type of data set: in vivo, CDF1 mice. The note with it: intraperitoneally, once a day for 10 days. Here is the method:
(§1) Antitumor effects of some Fredericamycin A derivatives against Ehrlich carcinoma, Meth-A fibrosarcoma and mouse leukemia P-388 were tested in accordance with the following procedures. Antitumor effects against Ehrlich carcinoma and Meth-A fibrosarcoma are expressed by percentage of mean survival time of test and control animals. Antitumor effects against P-388 are expressed by percentage of median survival time of test and control animals.
(§2) (ii) Meth-A fibrosarcoma and mouse leukemia P-388:
(§3) 1×10^6 tumor cells were inoculated to CDF1 mice (.male., Charles River Japan Inc.) intraperitoneally. Each tested compound was given intraperitoneally once a day for 10 days from 1 day after tumor inoculation.

In data set [4] the test system is Staphylococcus epidermidis ATCC 12228. Kind of data set: MIC, antibacterial activity (agar culture). The note with it: ATCC12228, 37° C., 18-20 hours, Mueller-Hinton agar, read-out: Minimum inhibitory concentration MIC. The data set is classed as cell-based.
Data set [5] relates to Piricularia oryzae IAM 5016. Description: microbe, parasite or virus in culture. Type of data set: cell-based. The note with it: 120 h; read-out: Minimum inhibitory concentration MIC.
The subject of data set [6] is Meth-A fibrosarcoma. Kind of data set: Antitumor effect, survival of tumor-inoculated mice. The note with it: intraperitoneally, once a day for 10 days. The data set is classed as in vivo, CDF1 mice. Here is the method: as §1, §2, §3
[7] abbreviates: Mus musculus, ip, 240 h, 0.5 mg/kg/day, read-out: percentage of mean survival time of test and control animals.
[8] abbreviates: Mus musculus, ip, 240 h, 1.0 mg/kg/day, read-out: percentage of mean survival time of test and control animals.
Where [9] appears, read: Mus musculus, ip, 240 h, 2.0 mg/kg/day, read-out: percentage of mean survival time of test and control animals.

Converted amounts (≈) assume the structure as drawn.

With `C/C=C/C=C/c1cc2cc3c(c(O)c2c(=O)[nH]1)C1(CC3)C(=O)c2c(OC(=O)c3ccccc3)c3c(c(OC(=O)c4ccccc4)c2C1=O)C(=O)C(OC)=CC3=O` (stereo not drawn) [Compound 8], the response vs control in vivo at 0.5 mg/kg/day in data set [1] (setting [7]) is 166%. Further, the response vs control in vivo at 1 mg/kg/day in data set [1] (setting [8]) was over 199%. For the same molecule, the response vs control in vivo at 2 mg/kg/day in data set [1] (setting [9]) turned out to be 97%.
Regarding `C/C=C/C=C/c1cc2cc3c(c(O)c2c(=O)[nH]1)C1(CC3)C(=O)c2c(OC(=O)CC(C)C)c3c(c(OC(=O)CC(C)C)c2C1=O)C(=O)C(OC)=CC3=O` (stereo not drawn) [Compound 2, Fredericamycin A diisovalerate], the response vs control in vivo at 0.5 mg/kg/day in data set [1] (setting [7]) is 120%. In addition, the response vs control in vivo at 1 mg/kg/day in data set [1] (setting [8]) was over 168%. Moreover, the response vs control in vivo at 2 mg/kg/day in data set [1] (setting [9]) is over 229%.
Regarding `CCCCCc1cc2cc3c(c(O)c2c(=O)[nH]1)C1(CC3)C(=O)c2c(c(OC(C)=O)c3c(OC(C)=O)c(OC)cc(OC(C)=O)c3c2OC(C)=O)C1=O` (stereo not drawn) [Compound 12, leucotetraacetyltetrahydrofredericamycin A], in data set [2], the Percentage remainder worked out at 100%, the remaining at 3 h came to 99%, the remaining at 6 h came out at 98.3% and the remaining at 24 h was found to be 97.1%. Further, in data set [2], the remaining at 48 h turned out to be 95.7% and the remaining at 72 h is 94.4%. Also, in data set [3] (2.0 mg/kg/day), the “percentage of median survival time of test and control animals” value turned out to be 142%. For the same molecule, in data set [3] (4.0 mg/kg/day), the “percentage of median survival time of test and control animals” value came out at 146%. Also, in data set [3] (8.0 mg/kg/day), the “percentage of median survival time of test and control animals” value is on record as 152%. Also, the response vs control in vivo at 2 mg/kg/day in data set [1] (setting [9]) was 116%. In data set [1] (Mus musculus, ip, 240 h, 4.0 mg/kg/day, read-out: percentage of mean survival time of test and control animals), the response vs control in vivo at 4 mg/kg/day was 136%. Moreover, the response vs control in vivo at 8 mg/kg/day in data set [1] (Mus musculus, ip, 240 h, 8.0 mg/kg/day, read-out: percentage of mean survival time of test and control animals) was over 203%.
Regarding `C/C=C/C=C/c1cc2cc3c(c(O)c2c(=O)[nH]1)C1(CC3)C(=O)c2c(OC(=O)CC)c3c(c(OC(=O)CC)c2C1=O)C(=O)C(OC)=CC3=O` (stereo not drawn) [Compound 4], the “percentage of mean survival time of test and control animals” value in data set [1] (0.5 mg/kg/day) is on record as “over 282%”; in data set [1] (1.0 mg/kg/day), “over 288%”; in data set [1] (2.0 mg/kg/day) it was 50%.
Turning to `C/C=C/C=C/c1cc2cc3c(c(O)c2c(=O)[nH]1)C1(CC3)C(=O)c2c(OC(=O)CCCCC)c3c(c(OC(=O)CCCCC)c2C1=O)C(=O)C(OC)=CC3=O` (stereo not drawn) [Compound 5], the MIC in data set [4] was found to be 25 µg/mL (≈ 34 µM). In addition, in data set [2], the Percentage remainder came out at 100%, the remaining at 3 h was 93.2%, the remaining at 6 h is 88% and the remaining at 24 h came to 67.6%. Also, in data set [2], the remaining at 48 h amounted to 57.8% and the remaining at 72 h was 47.9%. The “percentage of mean survival time of test and control animals” value in data set [1] (0.5 mg/kg/day) was “over 247%”. For the same molecule, in data set [1] (1.0 mg/kg/day), the “percentage of mean survival time of test and control animals” value is “over 229%”. In addition, the “percentage of mean survival time of test and control animals” value in data set [1] (2.0 mg/kg/day) is on record as “over 256%”. Besides, the MIC in data set [5] is 0.39 µg/mL (≈ 0.53 µM).
`CCCCCCCCCCCC(=O)Oc1c2c(c(OC(=O)CCCCCCCCCCC)c3c1C(=O)C1(CCc4cc5cc(CCCCC)[nH]c(=O)c5c(O)c41)C3=O)C(=O)C(OC)=CC2=O` (stereo not drawn) [Compound 21]: in data set [2], the Percentage remainder was 100%, the remaining at 3 h is 95.3%, the remaining at 6 h is 92.2% and the remaining at 24 h amounted to 87.3%. In data set [2], the remaining at 48 h worked out at 80.5% and the remaining at 72 h came out at 74.8%.
Turning to `C/C=C/C=C/c1cc2cc3c(c(O)c2c(=O)[nH]1)C1(CC3)C(=O)c2c(OC(=O)c3ccc(C)cc3)c3c(c(OC(=O)c4ccc(C)cc4)c2C1=O)C(=O)C(OC)=CC3=O` (stereo not drawn) [Compound 3, Fredericamycin A di-p-methylbenzoate], the MIC in data set [4] was found to be 25 µg/mL (≈ 32.2 µM); in data set [5], 6.25 µg/mL (≈ 8.06 µM).
Regarding `C/C=C/C=C/c1cc2cc3c(c(O)c2c(=O)[nH]1)C1(CC3)C(=O)c2c(OC(=O)c3ccc(Cl)cc3)c3c(c(OC(=O)c4ccc(Cl)cc4)c2C1=O)C(=O)C(OC)=CC3=O` (stereo not drawn) [Compound 11], the response vs control in vivo at 0.5 mg/kg/day in data set [1] (setting [7]) was over 139%. Besides, the response vs control in vivo at 1 mg/kg/day in data set [1] (setting [8]) is over 198%. In data set [1] (setting [9]), the response vs control in vivo at 2 mg/kg/day was over 260%.
Take `CCCCCc1cc2cc3c(c(O)c2c(=O)[nH]1)C1(CC3)C(=O)c2c(O)c3c(c(O)c2C1=O)C(=O)C(OC)=CC3=O` (stereo not drawn) [Compound 17, tetrahydrofredericamycin A]: the “percentage of mean survival time of test and control animals” value in data set [6] (0.25 mg/kg/day) is 102%; in data set [6] (0.5 mg/kg/day) it was 129%; in data set [6] (1.0 mg/kg/day), 164%; in data set [6] (2.0 mg/kg/day), 232%. For the same molecule, the “percentage of median survival time of test and control animals” value in data set [3] (2.0 mg/kg/day) came to 130%; in data set [3] (4.0 mg/kg/day) it was 143%; in data set [3] (8.0 mg/kg/day), 152%. In data set [1] (Mus musculus, ip, 240 h, 0.125 mg/kg/day, read-out: percentage of mean survival time of test and control animals), the response vs control in vivo at 0.125 mg/kg/day stood at 187%. For the same molecule, in data set [1] (Mus musculus, ip, 240 h, 0.25 mg/kg/day, read-out: percentage of mean survival time of test and control animals), the response vs control in vivo at 0.25 mg/kg/day worked out at 248%. Besides, the response vs control in vivo at 0.5 mg/kg/day in data set [1] (setting [7]) came to 250%.
As to `C/C=C/C=C/c1cc2cc3c(c(O)c2c(=O)[nH]1)C1(CC3)C(=O)c2c(OC(=O)CCCCCCCCCCC)c3c(c(OC(=O)CCCCCCCCCCC)c2C1=O)C(=O)C(OC)=CC3=O` (stereo not drawn) [Compound 7], the MIC amounted to 25 µg/mL (≈ 27.7 µM) in data set [4] and 1.56 µg/mL (≈ 1.73 µM) in data set [5]. The “percentage of mean survival time of test and control animals” value in data set [1] (0.5 mg/kg/day) is given as 104%; in data set [1] (1.0 mg/kg/day), 96%; in data set [1] (2.0 mg/kg/day) it was 194%.
With `C/C=C/C=C/c1cc2cc3c(c(O)c2c(=O)[nH]1)C1(CC3)C(=O)c2c(OC(=O)c3ccc(OC)cc3)c3c(c(OC(=O)c4ccc(OC)cc4)c2C1=O)C(=O)C(OC)=CC3=O` (stereo not drawn) [Compound 10], the values for the MIC in data set [4] and in data set [5] were 12.5 µg/mL (≈ 15.5 µM) and 1.56 µg/mL (≈ 1.93 µM), respectively. Further, in data set [1] (setting [7]), the response vs control in vivo at 0.5 mg/kg/day came out at 105%. In addition, the response vs control in vivo at 1 mg/kg/day in data set [1] (setting [8]) was determined as 171%. Moreover, the response vs control in vivo at 2 mg/kg/day in data set [1] (setting [9]) is over 202%.
